“Also recorded” adds a separate entry of the source. Like-named read-outs stand apart in the source and are kept apart here.
Legend:
[1] = system: endogenous Kpnα2 nuclear localisation in CaSki cells; experiment: Nuclear and cytoplasmic protein extraction, Western Blot; format: cell-based; settings: IC50 concentration, 48 hours (FIGS. 11, 12)
Method: (§1) Nuclear and cytoplasmic protein fractionation was performed using the NE-PER Nuclear Protein Extraction Kit (ThermoScientific, Rockford, Ill., USA), according to the manufacturer's instructions. […] Western Blot analysis was performed using a goat anti-Karyopherin α2 (C-20) antibody (sc-6917, Santa Cruz Biotechnology), and a rabbit anti-NFYA (H-209) antibody (sc-10779, Santa Cruz Biotechnology). An anti-β-tubulin (H-235) antibody (sc-9104, Santa Cruz Biotechnology) was used to control for cytoplasmic protein loading and a rabbit anti-TATA-box binding protein (TBP) (N-12) and antibody (sc-204, Santa Cruz Biotechnology) to control for nuclear protein loading. Densitometry was performed using Image J.

[2] = system: NFY nuclear localisation in CaSki cells; experiment: as above; format: cell-based; settings: IC50 concentration, 48 hours (FIGS. 11, 12)
Method: as §1

HeLa and KYSE30 cells = experiment: Anchorage-independent colony formation; format: cell-based; settings: 10 μM; polyheme-coated plates, 9 days (FIG. 23)
Method: The anchorage-independent proliferation of cancer cells was measured in response to Compound A treatment, as cells grown in this manner are more representative of tumour cells in vivo. Cells were grown on polyheme-coated plates and cell proliferation monitored 9 days after treatment, using MTT assays.

[3] = system: p65/NFκB transcriptional activity in CaSki cells; experiment: p65 luciferase reporter assay; format: cell-based; settings: 10 or 15 μM, 24 hours (FIG. 15)
Method: To assay for AP-1 and p65 luciferase activities, 40 000 CaSki cells were plated in 24-well plates, and transfected with 50 ng of an API luciferase reporter (containing four copies of the AP-1 binding site) or 50 ng of a p65 luciferase reporter (containing five copies of the p65 binding site, Clontech, CA, USA) and 5 ng pRL-TK (encoding Renilla luciferase, Promega), using 0.16 μl TransFectin™ lipid reagent (Bio-Rad, Hercules, Calif., USA). The following day cells were treated with 10 or 15 μM Compound A. Luciferase activity was measured 24 hours after Compound A treatment using the Dual-LuciferaseR Reporter assay system (Promega, Madison, Wis., USA), according to the manufacturers' instructions. Luciferase readings were measured using the Veritas™ microplate luminometer (Promega) and luciferase readings were normalised to Renilla luciferase in the same extract.

[4] = system: PARP cleavage in CaSki cells; experiment: PARP cleavage analysis by Western Blot; format: cell-based; settings: IC50 and twice the IC50 (FIG. 5), varying concentrations 12 hours (FIG. 26)
Method: CaSki cells were treated with varying concentrations of Compound A for 12 hours, following which cells and cell floaters were harvested using RIPA buffer (10 mM Tris-Cl, pH 7.4, 150 mM NaCl, 1% sodium deoxycholate, 0.1% SDS, 1% Triton X-100, 1× complete protease inhibitor cocktail (Roche, Mannheim, Germany)) and Western Blot analysis performed, using a rabbit anti-Parp1/2 (H-250) antibody (sc-7150).

[5] = system: WHCO5 oesophageal cancer cell line; experiment: MTT assay for cell viability, IC50 determination; format: cell-based, human; settings: MTT
Method: (§2) Cells were plated in 96-well plates and treated with varying concentrations of a test compound for 48 hours, after which MTT dye, 3-(4,5-dimethylthiazol-2-yl)-2,5-diphenyltetrazolium bromide (Sigma), was added, and crystals solubilised 4 hours later using Solubilisation Reagent (10% SLS in 0.01 M HCl). Absorbencies were measured at 595 nm the following day using a BioTek microplate spectrophotometer (Winooski, Vt., USA) and IC50 curves were generated using GraphPad Prism.

[6] = system: SVWI38 transformed cell line; experiment: MTT assay for cell viability, IC50 determination; format: cell-based; settings: SVWI38 transformed; 48 hours, MTT
Summary of the method: (§3)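 Read-out: MTT formazan absorbance, 595 nm. Treatment lasted 48 h across a concentration range; IC50 was calculated by curve fitting.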

[7] = system: OVCAR3 ovarian cancer cell line; experiment: MTT assay for cell viability, IC50 determination; format: cell-based; settings: Homo sapiens, OVCAR-3, 48 hours
Summary of the method: as §3

[8] = system: MCF7 breast cancer cell line; experiment: MTT assay for cell viability, IC50 determination; format: cell-based; settings: Homo sapiens, 48 hours, MTT
Summary of the method: as §3

[9] = system: HeLa cervical cancer cell line; experiment: MTT assay for cell viability, IC50 determination; format: cell-based; settings: HeLa, 48 hours, MTT, read-out: IC50
Summary of the method: as §3

[10] = system: KYSE180 oesophageal cancer cell line; experiment: MTT assay for cell viability, IC50 determination; format: cell-based; settings: Homo sapiens, KYSE-180, 48 hours
Summary of the method: as §3

cancer cell lines = experiment: MTT cell viability, summary statements over panels of cancer cell lines; format: cell-based; settings: cervical, oesophageal, ovarian and breast cancer cell lines (Table 11); read-out: IC50
Method: as §2

[11] = Body mass of tumour-bearing mice during treatment; format: in vivo; settings: WHCO6 tumour-bearing mice; 50 mg/kg i.p. over the course of the treatment (FIG. 29)
Method: WHCO6 cells were harvested and resuspended in PBS. For tumour inoculation, cancer cells (5×10^6 per mouse) were s.c. implanted into the hind flanks of female nude mice. Once tumours had reached a palpable size, drug treatment was initiated, where tumour-bearing mice were randomized and dosed i.p. with either vehicle (DMSO) or Compound A (50 mg/kg), every 2-3 days for 3 weeks. Tumour volumes were measured twice a week, using calipers, and tumour volume estimated using the following formula: volume=(length×width×width)/2. Mice were sacrificed 3 weeks after the commencement of drug treatment.

[12] = system: GFP-Kpnα2 localisation in CaSki cells; experiment: GFP-Kpnα2 nuclear translocation, fluorescence microscopy; format: cell-based; settings: 10 μM
Method: For controls, equivalent volumes of DMSO were used. Cells were fixed with 4% paraformaldehyde prior to fluorescence microscopy and cell nuclei were stained with 0.5 μg/ml DAPI. Due to fluorescence emitted by Compound A in the GFP channel, the Compound A signal had to be excluded from the GFP signal by separating the emission spectra. A Zeiss LSM 510 Meta confocal microscope was used and images captured using the ZEN 2009 camera with associated AxioVision software (version 4.7). Pictures were edited using the Zeiss image browser. For quantification, 100 cells from each condition were analysed using Image J.
Compound A with cell-killing ability was tested for its ability to block nuclear import using a fluorescence-based screening assay. The assay was based on the fact that Kpnα enters the nucleus in a complex with Kpnβ1. Kpnα2 (Impα1 or Rch1) was GFP-tagged (FIG. 8) and its localisation monitored after treatment with the various compounds, via fluorescence microscopy. […] It was noted that Compound A fluoresced itself, and thus the compound fluorescence signal had to be excluded from the GFP-Kpnα2 signal by separating the emission spectra.

Question: Which results are given for CN(C)CCCn1c(N)c(-c2nc3ccccc3[nH]2)c2nc3ccccc3nc21 [Compound A, 3-(1H-benzimidazol-2-yl)-1-(3-dimethylaminopropyl)pyrrolo[5,4-b]quinoxalin-2-amine]?
Answer: amount of Kpnα2 in the nucleus [1]: decrease; NFY in the nuclear fraction [2]: decrease; anchorage-independent colony formation (HeLa and KYSE30 cells): unable to form colonies; p65 luciferase activity [3]: decreased in a dose-dependent manner; PARP cleavage as an indicator of apoptosis [4]: induce cancer cell death via apoptosis; also recorded: increase in the levels of the 89 kDa cleaved PARP; IC50 ([5]; 48 hours): 9.09 µM; IC50 ([5]; Homo sapiens, 48 h): 9.09 µM; IC50 [6]: 10.4 µM; IC50 [7]: 10.5 µM; IC50 [8]: 9.33 µM; IC50 [9]: 8.77 µM; IC50 ([9]; Homo sapiens, 48 h): 10.2 µM; IC50 [10]: 15.8 µM; IC50 (cancer cell lines): ~10 µM; body mass of the mice [11]: did not change; number of cells containing cytoplasmic GFP-Kpnα2 ([12]; 24 hours (FIG. 9)): significant increase; GFP-Kpnα2 nuclear fluorescence signal ([12]; 24 hours (FIG. 10)): significant decrease
